Measurements published in patent EP4644396A1 (Visionpharma (Nantong) Co., Ltd, priority 2022, dated 2024).
Read-outs that look alike come from different tables or passages of the source.

Tests used:
human TLR8 = molecular target: T1, human TLR8 (Homo sapiens, UniProt Q9NR97); assay: HEK-Blue hTLR8 SEAP reporter gene inhibition assay; assay type: cell-based
T1 construct: expressed in transfected cells
T1 sequence (Q9NR97 27-1041): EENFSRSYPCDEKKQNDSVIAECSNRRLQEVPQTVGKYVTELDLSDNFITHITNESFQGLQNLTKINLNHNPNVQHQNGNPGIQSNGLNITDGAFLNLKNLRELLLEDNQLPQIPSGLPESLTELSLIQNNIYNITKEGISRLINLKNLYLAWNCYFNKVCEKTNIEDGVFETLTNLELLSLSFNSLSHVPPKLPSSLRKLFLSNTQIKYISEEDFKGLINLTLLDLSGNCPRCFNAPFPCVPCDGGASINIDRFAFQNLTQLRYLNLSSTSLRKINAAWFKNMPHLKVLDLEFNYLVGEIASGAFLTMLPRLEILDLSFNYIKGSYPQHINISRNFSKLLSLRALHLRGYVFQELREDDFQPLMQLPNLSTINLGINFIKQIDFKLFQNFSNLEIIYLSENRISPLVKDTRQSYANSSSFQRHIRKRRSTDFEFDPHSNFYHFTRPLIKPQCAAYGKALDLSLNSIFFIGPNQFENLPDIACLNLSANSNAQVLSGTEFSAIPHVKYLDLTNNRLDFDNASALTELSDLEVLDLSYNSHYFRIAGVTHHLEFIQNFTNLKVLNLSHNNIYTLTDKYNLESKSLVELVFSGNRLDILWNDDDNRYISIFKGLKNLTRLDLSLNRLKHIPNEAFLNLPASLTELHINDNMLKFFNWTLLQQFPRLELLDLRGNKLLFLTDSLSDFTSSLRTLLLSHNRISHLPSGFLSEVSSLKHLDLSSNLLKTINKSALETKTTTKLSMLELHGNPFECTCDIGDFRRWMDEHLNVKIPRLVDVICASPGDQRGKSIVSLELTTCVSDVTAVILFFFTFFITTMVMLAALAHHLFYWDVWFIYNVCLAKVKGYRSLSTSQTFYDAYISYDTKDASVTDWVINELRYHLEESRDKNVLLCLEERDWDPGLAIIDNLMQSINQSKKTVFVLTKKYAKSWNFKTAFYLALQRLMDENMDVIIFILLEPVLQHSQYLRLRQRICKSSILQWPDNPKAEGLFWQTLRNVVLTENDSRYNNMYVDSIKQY
How it was run: (§1)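 SEAP read-out by Quanti-Blue after 20 h stimulation gave IC50 values. Stable hTLR7 or hTLR8 HEK-Blue cells were pretreated 15 min with compound at 0.001–36 µM final, then stimulated with 10 µM Gardiquimod (TLR7) or 10 µM TLR8 ligand.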

human TLR7 = molecular target: T2, human TLR7 (Homo sapiens, UniProt Q9NYK1); assay: HEK-Blue hTLR7 SEAP reporter gene inhibition assay; assay type: cell-based
T2 sequence (Q9NYK1 27-1049): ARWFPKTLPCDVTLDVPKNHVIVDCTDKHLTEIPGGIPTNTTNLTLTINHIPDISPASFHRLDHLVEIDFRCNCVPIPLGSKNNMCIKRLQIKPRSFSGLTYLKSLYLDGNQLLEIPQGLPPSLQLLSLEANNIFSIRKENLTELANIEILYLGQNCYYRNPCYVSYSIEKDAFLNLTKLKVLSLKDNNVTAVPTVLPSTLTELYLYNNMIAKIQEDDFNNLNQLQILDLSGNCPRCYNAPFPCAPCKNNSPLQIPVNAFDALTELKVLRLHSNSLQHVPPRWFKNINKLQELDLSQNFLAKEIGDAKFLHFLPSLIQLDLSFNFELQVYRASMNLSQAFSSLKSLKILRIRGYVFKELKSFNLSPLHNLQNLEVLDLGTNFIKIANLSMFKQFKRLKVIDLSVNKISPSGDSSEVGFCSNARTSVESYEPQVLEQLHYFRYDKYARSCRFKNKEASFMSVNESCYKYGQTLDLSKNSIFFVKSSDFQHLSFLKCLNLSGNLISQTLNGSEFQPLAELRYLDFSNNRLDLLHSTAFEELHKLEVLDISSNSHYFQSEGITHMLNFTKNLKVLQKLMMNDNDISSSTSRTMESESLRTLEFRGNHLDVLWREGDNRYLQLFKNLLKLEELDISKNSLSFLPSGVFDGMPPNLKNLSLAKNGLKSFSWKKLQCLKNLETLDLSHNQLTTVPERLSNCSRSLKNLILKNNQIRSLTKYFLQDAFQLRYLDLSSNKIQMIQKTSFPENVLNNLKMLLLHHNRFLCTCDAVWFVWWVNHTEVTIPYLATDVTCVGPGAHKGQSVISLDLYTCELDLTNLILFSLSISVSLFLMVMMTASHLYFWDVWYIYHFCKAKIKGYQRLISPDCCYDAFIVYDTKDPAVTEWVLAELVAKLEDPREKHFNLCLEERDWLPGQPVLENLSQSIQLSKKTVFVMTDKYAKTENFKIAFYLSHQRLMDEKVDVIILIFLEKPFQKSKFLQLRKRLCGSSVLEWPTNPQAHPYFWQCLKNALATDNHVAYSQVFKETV
How it was run: as §1

[1] = hTLR8 HEK-Blue cells, TLR8 ligand 10 µM, 20 hours, SEAP by Quanti-blue, class symbols, read-out: HEK-Blue hTLR8 IC50
[2] = hTLR7 HEK-Blue cells, TLR7 ligand Gardiquimod 10 µM, 20 hours, SEAP by Quanti-blue, class symbols, read-out: HEK-Blue hTLR7 IC50

| Structure (SMILES) | IC50 (human TLR8; [1]) | IC50 (human TLR7; [2]) | further results |
| --- | --- | --- | --- |
| C[C@@H]1CN(c2ccc(C#N)n3ncc(F)c23)Cc2c3c(nn21)CNC(C(C)(C)O)C3 (stereo partly drawn) [Example I-74, 3-Fluoro-4-((4R)-9-(2-hydroxypropan-2-yl)-4-methyl-3,4,7,8,9,10-hexahydropyrido [3',4':3,4]pyrazolo[1,5-a]pyrazin-2(1H)-yl)pyrazolo[1,5-a]pyridine-7-carbonitrile] | > 0.1 µM | > 0.05 µM |  |
| C[C@H]1CN(c2ccc(C#N)n3ncc(F)c23)Cc2c3c(nn21)CNCC3 [Example I-76, (S)-3-Fluoro-4-(4-methyl-3,4,7,8,9,10-hexahydropyrido[3',4':3,4]pyrazolo[1,5-a]pyrazin-2(1H)-yl)pyrazolo[1,5-a]pyridine-7-carbonitrile] | > 0.1 µM | > 0.05 µM |  |
| C[C@@H]1CN(c2ccc(C#N)n3ncc(F)c23)Cc2c3c(nn21)CN[C@@H](CO)C3 [Example I-77, 3-Fluoro-4-((4R,9R)-9-(hydroxymethyl)-4-methyl-3,4,7,8,9,10-hexahydropyrido [3',4':3,4]pyrazolo[1,5-a]pyrazin-2(1H)-yl)pyrazolo[1,5-a]pyridine-7-carbonitrile] | < 0.1 µM | > 0.05 µM |  |
| C[C@@H]1CN(c2ccc(C#N)n3ncc(F)c23)Cc2c3c(nn21)CNC(Cc1ccn[nH]1)C3 (stereo partly drawn) [Example I-79, 4-((4R)-9-((1H-pyrazol-5-yl)methyl)-4-methyl-3,4,7,8,9,10-hexahydropyrido[3',4':3,4]pyrazolo[1,5-a]pyrazin-2(1H)-yl)-3-fluoropyrazolo[1,5-a]pyridine-7-carbonitrile] | < 0.1 µM | < 0.05 µM |  |
| COC[C@H]1Cc2c(nn3c2CN(c2ccc(C#N)n4ncc(F)c24)C[C@H]3C)CN1 [Example I-82, 3-Fluoro-4-((4R,9R)-9-(methoxymethyl)-4-methyl-3,4,7,8,9,10-hexahydropyrido [3',4':3,4]pyrazolo[1,5-a]pyrazin-2(1H)-yl)pyrazolo[1,5-a]pyridine-7-carbonitrile] | > 0.1 µM | < 0.05 µM |  |
| C[C@@H]1CN(c2ccc(C#N)n3ncc(F)c23)Cc2c3c(nn21)CNC(C)(C)C3 [Example I-83, (R)-3-Fluoro-4-(4,9,9-trimethyl-3,4,7,8,9,10-hexahydropyrido[3',4':3,4]pyrazolo [1,5-a]pyrazin-2(1H)-yl)pyrazolo[1,5-a]pyridine-7-carbonitrile] | < 0.1 µM | < 0.05 µM |  |
| COC[C@@H]1Cc2c(nn3c2CN(c2ccc(C#N)n4ncc(F)c24)C[C@H]3C)CN1 [Example I-85, 3-Fluoro-4-((4R,9S)-9-(methoxymethyl)-4-methyl-3,4,7,8,9,10-hexahydropyrido [3',4':3,4]pyrazolo[1,5-a]pyrazin-2(1H)-yl)pyrazolo[1,5-a]pyridine-7-carbonitrile] | < 0.1 µM | > 0.05 µM |  |
| C[C@H]1NCCc2c1nn1c2CN(c2ccc(C#N)n3ncc(F)c23)C[C@H]1CF [Example I-87, 3-Fluoro-4-((4S,7R)-4-(fluoromethyl)-7-methyl-3,4,7,8,9,10-hexahydropyrido [3',4':3,4]pyrazolo[1,5-a]pyrazin-2(1H)-yl)pyrazolo[1,5-a]pyridine-7-carbonitrile] | < 0.1 µM | < 0.05 µM |  |
| C[C@@H]1CN(c2ccc(C#N)n3ncc(F)c23)Cc2c3c(nn21)CNC(c1cnn(C)c1)C3 (stereo partly drawn) [Example I-91, 3-Fluoro-4-((4R)-4-methyl-9-(1-methyl-1H-pyrazol-4-yl)-3,4,7,8,9,10-hexahydropyrido[3',4':3,4]pyrazolo[1,5-a]pyrazin-2(1H)-yl)pyrazolo[1,5-a]pyridine-7-carbonitrile] | < 0.1 µM | < 0.05 µM |  |
| C[C@@H]1CN(c2ccc(C#N)n3ncc(F)c23)Cc2c3c(nn21)CN1C(=O)OC[C@@H]1C3 [Example I-95, 3-Fluoro-4-((8R,12aS)-8-methyl-3-oxo-1,8,9,11,12,12a-hexahydro-3H,5H,10H-oxazolyl [3 ‴,4 ':1'6']pyridine and [3',4':3,4]pyrazole [1,5-a]pyrazine-10-yl) pyrazole [1,5-a]pyridine-7-nitrile] |  |  | IC50 (human TLR8; HEK-Blue hTLR8 IC50 (µM)): > 0.1 µM; IC50 (human TLR7; HEK-Blue hTLR7 IC50 (µM)): > 0.05 µM |
| C[C@@H]1CN(c2ccc(C#N)n3ncc(F)c23)Cc2c3c(nn21)CN(CC(N)=O)[C@@H](C)C3 [Example I-99, 2-((4R,9S)-2-(7-cyanide-3-fluoropyridox and [1,5-a]pyridox-4-base)-4,9-dimethyl-1,2,3,4,9, 10-hydropyridox [3', 4': 3, 4]pyridoz and [1, 5]pyridoxine-8 (7H)-Base) acetylamine] | > 0.1 µM | < 0.05 µM |  |
| C[C@@H]1CN(c2ccc(C#N)n3ncc(F)c23)Cc2c3c(nn21)CN(CC(=O)N[C@H]1CNC[C@H]1F)[C@@H](C)C3 [Example I-106, 2-((4R,9S)-2-(7-cyano-3-fluoropyrazolo[1,5-a]pyridin-4-yl)-4,9-dimethyl-1,2,3,4,9,10-hexahydropyrido[3',4':3,4]pyrazolo[1,5-a]pyrazin-8(7H)-yl)-N-((3S,4R)-4-fluoropyrrolidin-3-yl)acetamide] | < 0.1 µM | < 0.05 µM |  |
| C[C@@H]1CN(c2ccc(C#N)n3ncc(F)c23)Cc2c3c(nn21)CN(C1CC(O)C1)[C@@H](C)C3 (stereo partly drawn) [Example I-111, 3-Fluoro-4-((4R, 9S)-8-(3-hydroxycyclobutyl)-4,9-dimethyl-3,4,7,8,9, 10-hexahydropyridine [3 ', 4 ': 3, 4]pyrazole [1,5-a]pyrazine-2 (1 H) -yl) pyrazole [1,5-a] pyridine-7-nitrile] |  |  | IC50 (human TLR8; HEK-Blue hTLR8 IC50 (µM)): < 0.1 µM; IC50 (human TLR7; HEK-Blue hTLR7 IC50 (µM)): < 0.05 µM |
| C[C@@H]1CN(c2ccc(C#N)n3ncc(F)c23)Cc2c3c(nn21)CN(CC(C)(C)O)[C@@H](C)C3 [Example I-117, 3-Fluoro-4-((4R,9S)-8-(2-hydroxy-2-methylpropyl)-4,9-dimethyl-3,4,7,8,9,10-hexahydropyrido[3',4':3,4]pyrazolo[1,5-a]pyrazin-2(1H)-yl)pyrazolo[1,5-a]pyridine-7-carbonitrile] | < 0.1 µM | < 0.05 µM |  |
| C[C@@H]1CN(c2ccc(C#N)n3ncc(F)c23)Cc2c3c(nn21)CN(S(=O)(=O)CCN(C)C)[C@@H](C)C3 [Example I-118] | < 0.1 µM | < 0.05 µM |  |
| COCCN1Cc2nn3c(c2C[C@@H]1C)CN(c1ccc(C#N)n2ncc(F)c12)C[C@H]3C [Example I-125, 3-Fluoro-4-((4R,9S)-8-(2-methoxyethyl)-4,9-dimethyl-3,4,7,8,9,10-hexahydropyridine [3 ', 4 ': 3, 4]pyrazole [1,5-a]pyrazine-2(1H)-yl) pyrazole[1,5-a] pyridine-7-caronitrile] |  |  | IC50 (human TLR8; read-out: HEK-Blue hTLR8 IC50): < 0.1 µM; IC50 (human TLR7; read-out: HEK-Blue hTLR7 IC50): < 0.05 µM |
